Source: patent publication US11845760B2, “PRMT5 inhibitors” (AMGEN INC., priority 2020, dated 2023)

Key:
HCT116 WT cells = assay: HCT116 WT cell line proliferation (CellTiter-Glo cell viability, 6 days); format: cell-based; details: Homo sapiens, HCT-116, 144 h, HCT116 WT (parent) cells, 6 days of treatment, CellTiter-Glo cell viability; read-out: HCT-116 WT IC50
Outline: (§1)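 Isogenic HCT116 pair (both MTAP alleles knocked out vs parent) in RPMI 1640 + 10% FBS, seeded overnight at 37° C, 5% CO2, then exposed 6 days to 8- or 9-point 1:3 dilutions from 1 or 10 μM. CellTiter-Glo luminescence; IC50 from sigmoidal fit, Hill slope fixed −1, top 100%, or 4-parameter logistic.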

HCT116 MTAP null cells = assay: HCT116 MTAP null cell line proliferation (CellTiter-Glo cell viability, 6 days); format: cell-based; details: HCT116-MTAP null, 144 h, HCT116 MTAP null cells, 6 days of treatment, CellTiter-Glo cell viability; read-out: HCT-116 MTAP null IC50
Outline: as §1

| IC50 (HCT116 WT cells) | IC50 (HCT116 MTAP null cells) | Compound |
| --- | --- | --- |
| 4690 nM | 86 nM | Cn1ncc2c3cc(C(=O)N4CCOC[C@@H]4c4ccc(C(F)(F)F)cc4)c(F)cc3nc(N)c21 [Example 518, (4-amino-7-fluoro-3-methyl-3H-pyrazolo[3,4-c]quinolin-8-yl)((3S)-3-(4-(trifluoromethyl)phenyl)-4-morpholinyl)methanone] |
| 26 nM | 4 nM | C[C@@H]1COC[C@H](c2ccc(C(F)(F)F)cn2)N1C(=O)c1cc2c(cc1F)nc(N)c1cnn(C)c12 [Example 519, (4-amino-7-fluoro-1-methyl-1H-pyrazolo[4,3-c]quinolin-8-yl)((3R,5S)-3-methyl-5-(5-(trifluoromethyl)-2-pyridinyl)-4-morpholinyl)methanone] |
| 120 nM | 18 nM | C[C@@H]1COC[C@H](c2ccc(C(F)(F)F)cn2)N1C(=O)c1cc2c(cn1)nc(N)c1cnn(C)c12 [Example 520, (4-amino-1-methyl-1H-pyrazolo[4,3-c][1,7]naphthyridin-8-yl)((3R,5S)-3-methyl-5-(5-(trifluoromethyl)-2-pyridinyl)-4-morpholinyl)methanone] |
| 2080 nM | 30 nM | Cn1ncc2c(N)nc3ccc(C(=O)N4CCOC[C@@H]4c4ccc(C(F)(F)F)cc4)cc3c21 [Example 521, (4-amino-1-methyl-1H-pyrazolo[4,3-c]quinolin-8-yl)((3S)-3-(4-(trifluoromethyl)phenyl)-4-morpholinyl)methanone] |
| 509 nM | 30 nM | C[C@@H]1COC[C@H](c2ccc(C(F)(F)F)cn2)N1C(=O)c1cc2c3c(c(N)nc2cn1)COC3 [Example 522, (4-amino-1,3-dihydrofuro[3,4-c][1,7]naphthyridin-8-yl)((3R,5S)-3-methyl-5-(5-(trifluoromethyl)-2-pyridinyl)-4-morpholinyl)methanone] |
| 213 nM | 9 nM | C[C@@H]1COC[C@H](c2ccc(C(F)(F)F)cc2)N1C(=O)c1cc2c3c(c(N)nc2cn1)COC3 [Example 523, (4-amino-1,3-dihydrofuro[3,4-c][1,7]naphthyridin-8-yl)((3R,5S)-3-methyl-5-(4-(trifluoromethyl)phenyl)-4-morpholinyl)methanone] |
| 1240 nM | 31 nM | C[C@@H]1COC[C@H](c2ccc(C(F)(F)F)nc2)N1C(=O)c1cc2c3c(c(N)nc2cn1)COC3 [Example 524, (4-amino-1,3-dihydrofuro[3,4-c][1,7]naphthyridin-8-yl)((3R,5S)-3-methyl-5-(6-(trifluoromethyl)-3-pyridinyl)-4-morpholinyl)methanone] |
| 372 nM | 19 nM | C[C@@H]1COC[C@H](c2ccc(OC(F)(F)F)cc2)N1C(=O)c1cc2c3c(c(N)nc2cn1)COC3 [Example 525, (4-amino-1,3-dihydrofuro[3,4-c][1,7]naphthyridin-8-yl)((3R,5S)-3-methyl-5-(4-(trifluoromethoxy)phenyl)-4-morpholinyl)methanone] |
| 120 nM | 6 nM | C[C@@H]1COC[C@H](c2ccc(C(F)(F)F)cc2)N1C(=O)c1cc2c3c(c(N)nc2cc1F)COC3 [Example 526, (4-amino-7-fluoro-1,3-dihydrofuro[3,4-c]quinolin-8-yl)((3R,5S)-3-methyl-5-(4-(trifluoromethyl)phenyl)-4-morpholinyl)methanone] |
| 503 nM | 27 nM | C[C@@H]1COC[C@H](c2ccc(C(F)(F)F)cc2)N1C(=O)c1ccc2nc(N)c3c(c2c1)COC3 [Example 527, (4-amino-1,3-dihydrofuro[3,4-c]quinolin-8-yl)((3R,5S)-3-methyl-5-(4-(trifluoromethyl)phenyl)-4-morpholinyl)methanone] |
| 1210 nM | 29 nM | Nc1nc2cc(F)c(C(=O)N3CCOC[C@@H]3c3ccc(C(F)(F)F)cc3)cc2c2c1COC2 [Example 528, (4-amino-7-fluoro-1,3-dihydrofuro[3,4-c]quinolin-8-yl)((3S)-3-(4-(trifluoromethyl)phenyl)-4-morpholinyl)methanone] |
| 502 nM | 18 nM | Nc1nc2cc(Cl)c(C(=O)N3CCOC[C@@H]3c3ccc(C(F)(F)F)cc3)cc2c2c1COC2 [Example 529, (4-amino-7-chloro-1,3-dihydrofuro[3,4-c]quinolin-8-yl)((3S)-3-(4-(trifluoromethyl)phenyl)-4-morpholinyl)methanone] |
| 60 nM | 4 nM | C[C@@H]1COC[C@H](c2ccc(OC(F)(F)F)cc2)N1C(=O)c1cc2c3c(c(N)nc2cc1Cl)COC3 [Example 530, (4-amino-7-chloro-1,3-dihydrofuro[3,4-c]quinolin-8-yl)((3R,5S)-3-methyl-5-(4-(trifluoromethoxy)phenyl)-4-morpholinyl)methanone] |
| 215 nM | 13 nM | C[C@@H]1COC[C@H](c2ccc(C(F)(F)F)cc2)N1C(=O)c1cc2c(cc1F)nc(N)c1c2cnn1C [Example 531, (4-amino-7-fluoro-3-methyl-3H-pyrazolo[3,4-c]quinolin-8-yl)((3R,5S)-3-methyl-5-(4-(trifluoromethyl)phenyl)-4-morpholinyl)methanone] |
| 400 nM | 19 nM | C[C@@H]1COC[C@H](c2ccc(OC(F)(F)F)cc2)N1C(=O)c1cc2c(cc1F)nc(N)c1c2cnn1C [Example 532, (4-amino-7-fluoro-3-methyl-3H-pyrazolo[3,4-c]quinolin-8-yl)((3R,5S)-3-methyl-5-(4-(trifluoromethoxy)phenyl)-4-morpholinyl)methanone] |
| 2480 nM | 45 nM | C[C@@H]1COC[C@H](c2ccc(C(F)(F)F)cc2)N1C(=O)c1ccc2nc(N)c3c(cnn3C)c2c1 [Example 533, (4-amino-3-methyl-3H-pyrazolo[3,4-c]quinolin-8-yl)((3R,5S)-3-methyl-5-(4-(trifluoromethyl)phenyl)-4-morpholinyl)methanone] |
| 2610 nM | 44 nM | C[C@@H]1COC[C@H](c2ccc(OC(F)(F)F)cc2)N1C(=O)c1ccc2nc(N)c3c(cnn3C)c2c1 [Example 534, (4-amino-3-methyl-3H-pyrazolo[3,4-c]quinolin-8-yl)((3R,5S)-3-methyl-5-(4-(trifluoromethoxy)phenyl)-4-morpholinyl)methanone] |
| 3160 nM | 64 nM | CCOc1ccc([C@H]2COC[C@@H](C)N2C(=O)c2cc3c4c(c(N)nc3cn2)COC4)nn1 [Example 535, (4-amino-1,3-dihydrofuro[3,4-c][1,7]naphthyridin-8-yl)((3S,5R)-3-(6-ethoxy-3-pyridazinyl)-5-methyl-4-morpholinyl)methanone] |
| 646 nM | 19 nM | C[C@@H]1COC[C@H](c2ccc(OC(F)(F)F)cc2)N1C(=O)c1ccc2nc(N)c3c(c2c1)CO[C@@H]3C [Example 536, ((3R)-4-amino-3-methyl-1,3-dihydrofuro[3,4-c]quinolin-8-yl)((3R,5S)-3-methyl-5-(4-(trifluoromethoxy)phenyl)-4-morpholinyl)methanone] |
| 2500 nM | 55 nM | CCOc1ccc([C@H]2COC[C@@H](C)N2C(=O)c2ccc3nc(N)c4c(c3c2)CO[C@@H]4C)nn1 [Example 537, ((3R)-4-amino-3-methyl-1,3-dihydrofuro[3,4-c]quinolin-8-yl)((3S,5R)-3-(6-ethoxy-3-pyridazinyl)-5-methyl-4-morpholinyl)methanone] |
| 13300 nM | 282 nM | COc1ccc([C@H]2COC[C@@H](C)N2C(=O)c2ccc3nc(N)c4c(cnn4C)c3c2)nn1 [Example 538, (4-amino-3-methyl-3H-pyrazolo[3,4-c]quinolin-8-yl)((3S,5R)-3-(6-methoxy-3-pyridazinyl)-5-methyl-4-morpholinyl)methanone] |
| 1270 nM | 27 nM | COc1ccc([C@H]2COC[C@@H](C)N2C(=O)c2cc3c(cc2F)nc(N)c2c3cnn2C)nn1 [Example 539, (4-amino-7-fluoro-3-methyl-3H-pyrazolo[3,4-c]quinolin-8-yl)((3S,5R)-3-(6-methoxy-3-pyridazinyl)-5-methyl-4-morpholinyl)methanone] |
| 579 nM | 19 nM | COc1ccc([C@H]2COC[C@@H](C)N2C(=O)c2cc3c4c(c(N)nc3cc2F)COC4)nn1 [Example 540, (4-amino-7-fluoro-1,3-dihydrofuro[3,4-c]quinolin-8-yl)((3S,5R)-3-(6-methoxy-3-pyridazinyl)-5-methyl-4-morpholinyl)methanone] |
| 1010 nM | 24 nM | Cn1ncc2c3cc(C(=O)N4CCOC[C@@H]4c4ccc(S(F)(F)(F)(F)F)cc4)c(F)cc3nc(N)c21 [Example 544, (4-amino-7-fluoro-3-methyl-3H-pyrazolo[3,4-c]quinolin-8-yl)((3S)-3-(4-(pentafluoro-lambda~6~- sulfanyl)phenyl)-4-morpholinyl)methanone] |
| 1430 nM | 31 nM | Cn1ncc2c(N)nc3cc(F)c(C(=O)N4CCOC[C@@H]4c4ccc(F)cc4)cc3c21 [Example 545, (4-amino-7-fluoro-1-methyl-1H-pyrazolo[4,3-c]quinolin-8-yl)((3S)-3-(4-fluorophenyl)-4-morpholinyl)methanone] |
| 198 nM | 13 nM | Cn1ncc2c(N)nc3cc(Cl)c(C(=O)N4CCOC[C@@H]4c4ccc(C(F)(F)F)cc4)cc3c21 [Example 546, (4-amino-7-chloro-1-methyl-1H-pyrazolo[4,3-c]quinolin-8-yl)((3S)-3-(4-(trifluorometliyl)phenyl)-4-morpholinyl)methanone] |
| 3850 nM | 396 nM | Cn1ncc2c(N)nc3cc(C(F)(F)F)c(C(=O)N4CC[C@H](c5ccc(C(F)(F)F)cc5)C4)cc3c21 [Example 547, (4-amino-1-methyl-7-(trifluoromethyl)-1H-pyrazolo[4,3-c]quinolin-8-yl)((3R)-3-(4-(trifluoromethyl)phenyl)-1-pyrrolidinyl)methanone] |
